Results on one molecule are retold here after patent publication US20240382484A1, “COMPOSITION FOR TREATING, PREVENTING, OR AMELIORATING MELANOMA AND METHOD THEREOF” (Thomas Jefferson University, priority 2021, published 2024).

In one test the test system is 1014 tumors. Description: Flow cytometry of tumor-infiltrating immune cells from 1014 tumors. It is filed as in vivo, mouse. The following applies: day 7 post treatment, over the control group. A general note: Flow cytometry measures light scatter and fluorescence of single cells or particles in a stream.
The test system of the next test is WM1366-iCas9 xenograft. Description: WM1366-iCas9 xenograft tumor growth in Nu/J mice. In kind it is in vivo, mouse. The following applies: trametinib-containing chow (0.3 ppm) compared with control chow. The text has this:
FIG. 13A-13D: PDPK1 depletion delayed xenograft tumor growth in Nu/J mice, in accordance with some embodiments. FIG. 13A, Tumor growth of WM1366-iCas9 and PDPK1 knockout (KO) cells, represented as the change in volume (mm^3) over time, was shown from the start of injection to the start of treatment as indicated. Cyan dots indicated sacrifice of mice due to lack of visible tumors. The dotted line at 50 mm^3 indicates the size at which trametinib treatment was started. FIG. 13B: Time for tumor growth of WM1366-iCas9 cells to the start of treatment in male and female mice. Lines represent median number of days from the time of tumor implantation to the treatment size of 50 mm^3. The mouse without tumor formation was monitored for 105 days. p values were calculated with an unpaired two-tailed t test. […] FIG. 13D: Kaplan-Meier survival curves of WM1366-iCas9 tumor-bearing in female or male mice as indicated. p values were calculated by GraphPad Prism 9.0 with Log-rank (Mantel-Cox) test. n.s., not significant.
Animal experiments were performed at Thomas Jefferson University in a facility accredited by the Association for the Assessment and Accreditation of Laboratory Animal Care and were approved by the Institutional Animal Care and Use Committee (protocol #1052). […] Mouse weights were monitored once a week or three times per week during drug treatment. […]

As to `CC(=O)Nc1cccc(-n2c(=O)n(C3CC3)c(=O)c3c(Nc4ccc(I)cc4F)n(C)c(=O)c(C)c32)c1` [trametinib, N-(3-(3-cyclopropyl-5-((2-fluoro-4-iodophenyl)amino)-6,8-dimethyl-2,4,7-trioxo-3,4,6,7-tetrahydropyrido[4,3-d]pyrimidin-1(2H)-yl)phenyl)acetamide], the “frequency of CD8+ T cells within the CD45+ cell compartment” value in the test with 1014 tumors is “intermediate effect”. Further, the tumor growth result in the test with WM1366-iCas9 xenograft is on record as “delayed”.
